Data: ChEMBL document CHEMBL5154726, “Identification of triazolopyridine derivatives as a new class of AhR agonists and evaluation of anti-psoriasis effect in a mouse model” (Eur J Med Chem, 2022)
Converted amounts (≈) assume the structure as drawn. The source made the active and inactive calls. The calls are words filed in the database; no cut-off is given here.

Experiments:
[1] = Clearance in Sprague-Dawley rat at 5 mg/kg, iv measured up to 24 hrs by LC-MS/MS analysis; assay type: ADME, organism-based; conditions: in vivo
[2] = Half life in Sprague-Dawley rat at 10 mg/kg, po measured up to 24 hrs by LC-MS/MS analysis; assay type: ADME, organism-based; conditions: in vivo
[3] = Efflux ratio of apparent permeability in MDCK cells; assay type: ADME, cell-based, Canis lupus familiaris; conditions: dog
[4] = Volume of distribution at steady state in Sprague-Dawley rat at 5 mg/kg, iv measured up to 24 hrs by LC-MS/MS analysis; assay type: ADME, organism-based; conditions: in vivo, read-out: Vdss
[5] = tested on: Mus musculus; experiment: Anti-psoriatic activity in IMQ-induced BALB/c psoriasis mouse model assessed as reduction in IL-17f expression at 5 to 20 mg/kg, po by qRT-PCR analysis; assay type: functional, organism-based; conditions: dose 5-20 mg/kg
[6] = tested on: Mus musculus; experiment: Anti-psoriatic activity in IMQ-induced BALB/c psoriasis mouse model assessed as reduction in skin thickening at 5 to 20 mg/kg, po by H and E staining based analysis; assay type: functional, organism-based; conditions: dose 5-20 mg/kg
[7] = Tmax in Sprague-Dawley rat at 10 mg/kg, po measured up to 24 hrs by LC-MS/MS analysis; assay type: ADME, organism-based; conditions: in vivo
[8] = tested on: Mus musculus; experiment: Anti-psoriatic activity in IMQ-induced BALB/c psoriasis mouse model assessed as reduction in IL-17a expression at 0.1 to 1 % treated topically by qRT-PCR analysis; assay type: functional, organism-based; conditions: dose 0.1-1 %
[9] = target: Voltage-gated inwardly rectifying potassium channel KCNH2 (Homo sapiens, UniProt Q12809); experiment: Inhibition of hERG channel in HEK293 cells by whole-cell patch clamp assay; assay type: toxicity, cell-based
Voltage-gated inwardly rectifying potassium channel KCNH2, sequence (Q12809 whole entry): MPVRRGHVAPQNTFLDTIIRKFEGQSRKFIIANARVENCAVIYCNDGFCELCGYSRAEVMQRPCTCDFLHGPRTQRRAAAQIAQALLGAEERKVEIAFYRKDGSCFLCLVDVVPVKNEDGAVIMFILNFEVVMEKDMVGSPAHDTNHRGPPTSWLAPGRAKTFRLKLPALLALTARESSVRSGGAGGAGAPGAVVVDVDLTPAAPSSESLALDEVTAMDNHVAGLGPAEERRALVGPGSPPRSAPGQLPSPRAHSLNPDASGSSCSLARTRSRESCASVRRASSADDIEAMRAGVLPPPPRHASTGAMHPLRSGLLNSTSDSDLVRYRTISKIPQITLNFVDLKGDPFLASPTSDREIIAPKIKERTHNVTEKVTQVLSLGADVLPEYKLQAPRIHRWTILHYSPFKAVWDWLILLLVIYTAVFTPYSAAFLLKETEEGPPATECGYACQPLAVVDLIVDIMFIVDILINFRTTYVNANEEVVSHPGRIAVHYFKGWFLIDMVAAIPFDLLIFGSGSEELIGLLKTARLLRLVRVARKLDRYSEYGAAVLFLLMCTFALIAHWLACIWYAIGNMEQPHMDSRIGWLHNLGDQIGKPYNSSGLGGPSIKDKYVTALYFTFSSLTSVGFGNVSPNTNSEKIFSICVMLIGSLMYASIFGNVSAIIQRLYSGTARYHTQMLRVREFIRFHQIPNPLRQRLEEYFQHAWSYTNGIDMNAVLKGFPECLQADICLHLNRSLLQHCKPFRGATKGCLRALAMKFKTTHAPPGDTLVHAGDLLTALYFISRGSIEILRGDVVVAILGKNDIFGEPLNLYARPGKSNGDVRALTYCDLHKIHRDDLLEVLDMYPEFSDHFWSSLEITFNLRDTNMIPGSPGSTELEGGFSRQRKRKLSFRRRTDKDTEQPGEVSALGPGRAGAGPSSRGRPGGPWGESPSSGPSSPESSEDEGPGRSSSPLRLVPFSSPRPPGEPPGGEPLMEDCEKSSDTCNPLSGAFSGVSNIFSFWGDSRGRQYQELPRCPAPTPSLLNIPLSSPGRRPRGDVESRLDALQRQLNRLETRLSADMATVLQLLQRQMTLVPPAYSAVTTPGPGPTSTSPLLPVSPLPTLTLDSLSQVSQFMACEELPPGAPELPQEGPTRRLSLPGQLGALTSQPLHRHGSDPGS

[10] = target: NAD(P)H dehydrogenase [quinone] 1 (Homo sapiens) (UniProt P15559); experiment: Activation of NQO1 expression in human HaCaT cells up to 10 uM by qRT-PCR analysis; assay type: cell-based; conditions: filed as activator
NAD(P)H dehydrogenase [quinone] 1 (Homo sapiens), sequence (P15559 whole entry): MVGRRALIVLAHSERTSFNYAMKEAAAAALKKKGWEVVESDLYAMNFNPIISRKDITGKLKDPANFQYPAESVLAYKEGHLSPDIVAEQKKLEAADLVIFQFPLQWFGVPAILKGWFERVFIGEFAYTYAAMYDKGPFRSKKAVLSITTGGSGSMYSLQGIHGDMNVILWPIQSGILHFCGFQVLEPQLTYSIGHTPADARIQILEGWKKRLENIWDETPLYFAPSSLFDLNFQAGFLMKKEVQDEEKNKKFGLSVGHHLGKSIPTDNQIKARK

[11] = target: T1, Aryl hydrocarbon receptor (Homo sapiens, UniProt P35869); experiment: Induction of Ahr signalling in human HaCaT cells assessed as upregulation of HRNR expression incubated for 48 hrs; assay type: cell-based
T1 sequence (P35869 whole entry): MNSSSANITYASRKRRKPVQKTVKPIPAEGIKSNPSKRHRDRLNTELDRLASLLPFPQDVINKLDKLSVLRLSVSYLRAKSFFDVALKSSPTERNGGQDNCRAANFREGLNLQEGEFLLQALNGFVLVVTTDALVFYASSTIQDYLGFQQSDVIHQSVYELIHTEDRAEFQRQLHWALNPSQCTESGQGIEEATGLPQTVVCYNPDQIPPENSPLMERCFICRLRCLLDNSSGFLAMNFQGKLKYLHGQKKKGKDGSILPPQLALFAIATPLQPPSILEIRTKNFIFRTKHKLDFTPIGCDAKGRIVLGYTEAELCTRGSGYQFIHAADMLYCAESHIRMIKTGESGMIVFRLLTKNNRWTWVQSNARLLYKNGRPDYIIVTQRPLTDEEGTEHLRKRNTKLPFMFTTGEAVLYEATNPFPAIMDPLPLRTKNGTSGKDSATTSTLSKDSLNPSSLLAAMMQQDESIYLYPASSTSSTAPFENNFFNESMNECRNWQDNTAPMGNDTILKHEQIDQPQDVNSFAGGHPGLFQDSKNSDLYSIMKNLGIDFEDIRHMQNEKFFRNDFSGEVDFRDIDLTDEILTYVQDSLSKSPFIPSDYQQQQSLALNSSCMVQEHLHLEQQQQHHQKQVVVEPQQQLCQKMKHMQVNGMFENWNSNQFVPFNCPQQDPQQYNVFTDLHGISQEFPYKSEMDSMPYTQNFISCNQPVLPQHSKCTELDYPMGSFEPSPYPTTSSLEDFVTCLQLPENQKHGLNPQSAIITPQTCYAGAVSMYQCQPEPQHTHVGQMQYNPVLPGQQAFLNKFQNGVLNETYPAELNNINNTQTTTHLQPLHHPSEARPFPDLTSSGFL

[12] = target: T1, Aryl hydrocarbon receptor; experiment: Induction of Ahr nuclear translocation in human HaCaT cells at 10 uM incubated for 90 mins by immunofluorescence analysis; assay type: cell-based; conditions: 1.5 h
[13] = tested on: Mus musculus; experiment: Anti-psoriatic activity in IMQ-induced BALB/c psoriasis mouse model assessed as reduction in erythema at 0.1 to 1 % treated topically by H and E staining based analysis; assay type: functional, organism-based; conditions: dose 0.1-1 %
[14] = tested on: Mus musculus; experiment: Anti-psoriatic activity in IMQ-induced BALB/c psoriasis mouse model assessed as reduction in IL-17a expression at 5 to 20 mg/kg, po by qRT-PCR analysis; assay type: functional, organism-based; conditions: dose 5-20 mg/kg
[15] = MRT in Sprague-Dawley rat at 5 mg/kg, iv measured up to 24 hrs by LC-MS/MS analysis; assay type: ADME, organism-based; conditions: in vivo
[16] = target: T1, Aryl hydrocarbon receptor; experiment: Agonist activity at AhR signalling in human HaCaT cells assessed as increase in CYP1A1 mRNA expression by qRT-PCR analysis; assay type: cell-based; conditions: 10 µM, DDE = dose-dependent effect
[17] = n-Octanol/water partition coefficient, logD of the compound at 1 mg incubated for 48 hrs under shaking condition by LC/MS analysis; assay type: physicochemical
[18] = MRT in Sprague-Dawley rat at 10 mg/kg, po measured up to 24 hrs by LC-MS/MS analysis; assay type: ADME, organism-based; conditions: in vivo
[19] = Cytotoxicity against HEK293T cells assessed as reduction in cell viability measured after 72 hrs by MTT assay; assay type: toxicity, cell-based, HEK-293T; conditions: human
[20] = AUC (0 to t) in Sprague-Dawley rat at 10 mg/kg, po measured up to 24 hrs by LC-MS/MS analysis; assay type: ADME, organism-based; parameters: dose 10 mg/kg, time < 24 hrs, route po; conditions: in vivo
[21] = Solubility of the compound incubated for 48 hrs under shaking condition by LC/MS analysis; assay type: physicochemical
[22] = Cytotoxicity against human BEAS-2B cells assessed as reduction in cell viability measured after 72 hrs by MTT assay; assay type: toxicity, cell-based
[23] = tested on: HaCaT; experiment: Downregulation of CYP1A1 gene expression in AhR knockdown human HaCaT cells incubated for 48 hrs by qRT-PCR analysis; assay type: functional, cell-based
[24] = AUC (0 to infinity) in Sprague-Dawley rat at 5 mg/kg, iv measured up to 24 hrs by LC-MS/MS analysis; assay type: ADME, organism-based; parameters: dose 5 mg/kg, time < 24 hrs, route iv; conditions: in vivo
[25] = tested on: Mus musculus; experiment: Anti-psoriatic activity in IMQ-induced BALB/c psoriasis mouse model assessed as reduction in IL-17f expression at 0.1 to 1 % treated topically by qRT-PCR analysis; assay type: functional, organism-based; conditions: dose 0.1-1 %

Which clearance [1] does the source give for `Brc1ccc(-c2nc3ccc(Br)cn3n2)cc1` here?
The clearance was 19 mL/min/kg.

And the half-life [2]?
The half-life was 6.97 h.

And the efflux ratio [3]?
The efflux ratio was 2.34.

What about the Vd [4] of the same molecule?
The Vd was 1.02 L/kg.

And the Activity [5]?
The Activity was “Active”.

What about the Activity [6] of the same molecule?
The Activity was “Active”.

And the Tmax [7]?
Its Tmax is 0.83 h.

What about the Activity [8] of the same molecule?
Its Activity is “Active”.

What about the IC50 [9] of the same molecule?
Its IC50 is greater than 10 µM.

What about the Activity [10] of the same molecule?
Its Activity is “Active”.

And the Activity [11]?
Its Activity is “Active”.

And the Activity [12]?
Its Activity is “Active”.

And the Activity [13]?
The Activity was “Active”.

And the Activity [14]?
Its Activity is “Active”.

And the MRT [15]?
Its MRT is 0.89 h.

And the Activity [16]?
The Activity was “Dde”.

What about the logD at 48 h [17] of the same molecule?
The logD at 48 h was 2.97.

And the MRT [18]?
The MRT was 1.82 h.

And the IC50 at 72 h [19]?
The IC50 at 72 h was greater than 300 µM.

What about the AUC(0-t) at 24 h [20] of the same molecule?
Its AUC(0-t) at 24 h is 1400 ng·h/mL.

And the solubility thermodynamic at 48 h [21]?
Its solubility thermodynamic at 48 h is 17.2 µg/mL (≈ 48.6 µM).

What about the IC50 at 72 h [22] of the same molecule?
Its IC50 at 72 h is greater than 300 µM.

And the Activity [23]?
Its Activity is “Active”.

And the AUC(0-inf) [24]?
The AUC(0-inf) was 4640 ng·h/mL.

What about the Activity [25] of the same molecule?
Its Activity is “Active”.
